Data from US20060014826A1, “Dioxocyclohexane carboxylic acid phenyl amide derivatives for modulating voltage-gated potassium channels and pharmaceutical compositions containing the same” (Wyeth, priority 2004, published 2006).

Columns and labels:
[1] = system: seizures induced by administration of pentylenetetrazole (PTZ); assay: Inhibiting PTZ induced seizures; format: in vivo; details: Mus musculus; adult mice, i.p. pretreatment 30 min before PTZ 85 mg/kg s.c., 30 minute test period; read-out: ED50, Dose Range
Protocol: Compounds useful in this invention were also examined for their anticonvulsant activity in vivo by assessing their ability to inhibit the seizures induced by administration of pentylenetetrazole (PTZ). Adult mice were pretreated intraperitoneally with the test compound. Thirty minutes later these animals were challenged with pentylenetetrazole (85 mg/kg, s.c.) and observed for onset of seizures during a 30 minute test period.

[2] = biological target: T1, human Kv1.1/Kvβ1 potassium ion channel complex (Homo sapiens, UniProt Q09470+Q14722); assay: Inhibiting the inactivation of Kv1.1/Kvβ1 potassium ion channel complex, voltage clamp current recordings in Xenopus oocytes; format: cell-based; details: relative to control oocytes without test compound, read-out: Percent Increase in Steady State Current (@ concentration shown in parentheses)
T1 construct: expressed in transfected cells; host or cells: Xenopus oocytes injected with cRNA
Protocol: Compounds useful in this invention were examined for their ability to inhibit the inactivation of the human Kv1.1/Kvβ1 potassium ion channel complex in vitro using electrophysiological current recordings on inactivating Kv1.1/Kvβ1channels expressed in Xenopus oocytes. The following procedure was used.
Xenopus oocytes were harvested from frogs under general anesthesia using aseptic techniques. Oocytes were treated with 2 mg/ml collagenase for 1-1.5 hr, defolliculated, and injected with 40 nL cRNA (a mixture of hKv1.1 and hKvβ1) produced using standard molecular biological techniques (Sambrook, et al., 1989, Molecular Cloning: A Laboratory Manual). The concentration of hKv1.1/hKvβ1 cRNA varies, but was generally about 50 ng/μL hKv1.1 and […] hkβ1.
Currents were recorded using standard voltage clamp amplifiers at room temperature. Recordings were performed in the bath solution “ND-96” containing 96 mM NaCl, 2 mM KCl, 1 mm CaCl2, 1 mM MgCl2, 10 mM HEPES and […] Gentamycin (pH=7.6). The pipette (electrode) solution generally consisted of 3 mM KCl. Electrodes were made from WPI TW150F-4 borosilicate glass (or equivalent) and typically had resistances of 0.5-1.5 Mohms. The standard current—voltage (IV) pulse protocol consisted of voltage steps from −60 mV to +50 mV, in 10 mV increments for 200 ms, at a frequency of one IV set per 2 minutes. Data were digitized and analyzed by standard software packages.
Test compounds where first dissolved in DMSO to an initial concentration of 1-100 mM. Working dilutions of 1:2000 to 1:500 were made in the bath solution for final concentrations in the micromolar range. The bath solutions containing the test compounds were applied by bath perfusion using gravity or pump-driven flow. A minimum of 2 mL (10 times the bath volume) over 3 minutes were flowed for each compound concentration tested. Data were averaged across at least 3 cells tested for each concentration.
Test compounds were examined for their ability to inhibit the inactivation of the steady state portion of the IV curve.

[3] = system: mouse 4-Plate model (punished crossings); assay: Anxiolytic activity, mouse 4-Plate model; format: in vivo, male Swiss Webster mice
Protocol: Anxiolytic activity of the compounds of this invention was determined using the mouse 4-Plate model, originally described by Boissier et al. (Eur. J. Pharmacol. (1968) 4:145-151). The test procedure used is described in further detail below. Anxiolytic efficacy is measured as the ability of the test compound to increase the number of times that an animal will accept a mild punishment (in the form of a foot shock) in order to explore its environment. A number of clinically effective treatments for anxiety from multiple pharmacological classes are effective in this model (Hascoet et al., Pharmacol. Biochem. Beh. (2000) 65:339-344).
The compound of Example 8 was examined in the 4-Plate model.
Experimental Protocol for the 4-Plate Model
The “four-plate” apparatus consisted of a Plexiglas cage (18×25×16 cm) floored by four identical rectangular metal plates (8×11 cm) separated from one another by a gap of 4 mm. The plates were connected to a device that generated electric shocks (0.8 mA, 0.5 sec). […] Test animals (male Swiss Webster mice) were group housed with ad-lib access to food and water. Compounds were administered at the appropriate dose ip. 30 min prior to testing. Control animals were given the vehicle without drug. Animals were then placed in the 4-plate apparatus and allowed to habituate for 18 seconds. Following the 18-sec habituation period, an electric shock (0.8 mA, 0.5 sec) was delivered to the mouse when crossing from one plate to another. No shocks were delivered during the 3 seconds following shock administration. The number of punished crossings was recorded during a 1-min testing period. Data were expressed as the percent change in the number of punished crossings relative to control.

T1 sequence (Q09470 whole entry): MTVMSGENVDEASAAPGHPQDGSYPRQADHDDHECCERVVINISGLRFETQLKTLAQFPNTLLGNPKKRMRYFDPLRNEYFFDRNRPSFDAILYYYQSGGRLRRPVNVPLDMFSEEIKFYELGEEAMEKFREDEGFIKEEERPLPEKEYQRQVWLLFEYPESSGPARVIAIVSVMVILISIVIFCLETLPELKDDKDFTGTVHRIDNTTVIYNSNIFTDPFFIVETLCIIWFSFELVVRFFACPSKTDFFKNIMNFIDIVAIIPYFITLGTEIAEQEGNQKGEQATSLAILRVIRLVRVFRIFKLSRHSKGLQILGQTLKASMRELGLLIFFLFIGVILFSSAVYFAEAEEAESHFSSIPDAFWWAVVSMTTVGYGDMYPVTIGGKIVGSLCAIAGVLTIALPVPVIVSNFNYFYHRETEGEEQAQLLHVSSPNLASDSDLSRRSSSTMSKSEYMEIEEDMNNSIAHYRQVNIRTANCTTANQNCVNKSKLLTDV
T1 sequence (Q14722 whole entry): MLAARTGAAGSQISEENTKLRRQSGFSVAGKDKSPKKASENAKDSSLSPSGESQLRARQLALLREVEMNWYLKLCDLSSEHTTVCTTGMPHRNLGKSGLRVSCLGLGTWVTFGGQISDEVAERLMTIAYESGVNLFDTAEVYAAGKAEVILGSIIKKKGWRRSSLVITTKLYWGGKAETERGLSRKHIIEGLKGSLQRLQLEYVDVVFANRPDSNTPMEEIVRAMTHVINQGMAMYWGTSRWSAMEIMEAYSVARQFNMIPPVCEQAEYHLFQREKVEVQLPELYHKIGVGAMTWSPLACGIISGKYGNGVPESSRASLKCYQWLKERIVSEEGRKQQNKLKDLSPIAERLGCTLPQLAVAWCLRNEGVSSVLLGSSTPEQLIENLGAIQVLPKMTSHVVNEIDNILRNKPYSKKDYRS

| SMILES | ED50 [1] | activation at 100 µM [2] | melting point | Punished crossings (% of control) ([3]; 0.3 mg/kg ip., 30 min prior to testing) | increase in the number of punished crossings ([3]; at therapeutically relevant doses) | increase in the number of punished crossings ([3]; 56 mg/kg ip) | % Time Spent in Open Zones (Relative to Control) ([3]; 60 mg/kg ip., 30 min prior to testing) | activation at 50 µM ([2]; 50 μm) |
| --- | --- | --- | --- | --- | --- | --- | --- | --- |
| CC1(C)CC(=O)C(C(=O)Nc2ccc(Cl)c(Cl)c2)C(=O)C1 [Example 2, N-(3,4-dichlorophenyl)-4,4-dimethyl-2,6-dioxocyclohexanecarboxamide] | 50 mg/kg | 75% | 124 to 129 °C | – | – | – | – | – |
| CC1(C)CC(=O)C(C(=O)Nc2cccc(Cl)c2)C(=O)C1 [Example 1, N-(3-chlorophenyl)-4,4-dimethyl-2,6-dioxocyclohexanecarboxamide] | 30 mg/kg | 21% | 89 to 91 °C | – | – | – | – | – |
| Cc1nnc2n1-c1ccc(Cl)cc1C(c1ccccc1)=NC2 [Alprazolam, reference compound] | – | – | – | 170% | 70% | – | – | – |
| CC1(C)CC(=O)C(C(=O)Nc2cccc(C(F)(F)F)c2)C(=O)C1 [Example 8, N-(3-trifluoromethylphenyl)-4,4-dimethyl-2,6-dioxocyclohexanecarboxamide] | 32 mg/kg | 40% | 116 to 117 °C | – | – | 31% | 131% | – |
| CC1(C)CC(=O)C(C(=O)Nc2cc(C(F)(F)F)cc(C(F)(F)F)c2)C(=O)C1 [Example 9, N-[3,5-bis(trifluoromethyl)phenyl]-4,4-dimethyl-2,6-dioxocyclohexanecarboxamide] | 55 mg/kg | – | – | – | – | – | – | 20% |
